Results: the NIST ThermoML archive (doi:10.1016/j.jct.2006.09.012)
“And” between values parts separate entries of the source, which are not always exact repeats. Equal entries are not always repeated.

Details: Gas, Buoyancy - hydrostatic balance with magnetic suspension - two sinkers

N#N [nitrogen]
Details | mass density
340.01 K, 11962 kPa | 114.845 kg/m3 and 114.844 kg/m3 and 114.842 kg/m3
340.01 K, 15961 kPa | 150.241 kg/m3 and 150.238 kg/m3 and 150.239 kg/m3
340.01 K, 15962 kPa | 150.242 kg/m3 and 150.24 kg/m3
340.01 K, 20072 kPa | 184.447 kg/m3 [middle of 5 runs]
340.01 K, 20073 kPa | 184.453 kg/m3
340.01 K, 24069 kPa | 215.463 kg/m3
340.01 K, 24070 kPa | 215.467 kg/m3 and 215.465 kg/m3 and 215.466 kg/m3
340.01 K, 28607 kPa | 247.989 kg/m3 and 247.99 kg/m3
340.01 K, 28608 kPa | 247.996 kg/m3 and 247.999 kg/m3 and 247.993 kg/m3
340.01 K, 33718 kPa | 281.379 kg/m3
340.01 K, 33719 kPa | 281.38 kg/m3 and 281.384 kg/m3
340.01 K, 33720 kPa | 281.389 kg/m3 and 281.386 kg/m3
359.99 K, 5385.3 kPa | 49.7747 kg/m3
359.99 K, 5385.4 kPa | 49.7738 kg/m3 and 49.7746 kg/m3
359.99 K, 5385.5 kPa | 49.7747 kg/m3 and 49.7744 kg/m3
359.99 K, 11539 kPa | 104.182 kg/m3
359.99 K, 23337 kPa | 197.246 kg/m3
360 K, 11538 kPa | 104.181 kg/m3 and 104.18 kg/m3
360 K, 11539 kPa | 104.182 kg/m3 and 104.181 kg/m3
360 K, 23336 kPa | 197.238 kg/m3 and 197.239 kg/m3 and 197.241 kg/m3
360 K, 23337 kPa | 197.243 kg/m3
379.99 K, 5685.7 kPa | 49.5887 kg/m3 [middle of 4 runs]
379.99 K, 5685.8 kPa | 49.589 kg/m3 and 49.5891 kg/m3
379.99 K, 12228 kPa | 103.776 kg/m3 and 103.778 kg/m3
380 K, 12228 kPa | 103.775 kg/m3 and 103.776 kg/m3
380 K, 24868 kPa | 196.492 kg/m3 and 196.493 kg/m3 and 196.491 kg/m3
380 K, 24869 kPa | 196.497 kg/m3 and 196.496 kg/m3 and 196.492 kg/m3
399.97 K, 499.5 kPa | 4.2016 kg/m3 and 4.2015 kg/m3 and 4.2014 kg/m3
399.97 K, 999 kPa | 8.3914 kg/m3 and 8.3913 kg/m3 and 8.3912 kg/m3
399.97 K, 1998 kPa | 16.7314 kg/m3 and 16.7313 kg/m3 and 16.7315 kg/m3
399.97 K, 3996 kPa | 33.2413 kg/m3 and 33.241 kg/m3 and 33.2411 kg/m3
399.97 K, 5994.1 kPa | 49.4948 kg/m3 and 49.4949 kg/m3 and 49.4947 kg/m3
399.99 K, 5983.6 kPa | 49.4072 kg/m3 and 49.4075 kg/m3
399.99 K, 5983.7 kPa | 49.4089 kg/m3 and 49.4079 kg/m3
399.99 K, 5983.8 kPa | 49.4087 kg/m3 and 49.4092 kg/m3
399.99 K, 12911 kPa | 103.383 kg/m3
399.99 K, 12912 kPa | 103.387 kg/m3
400 K, 12911 kPa | 103.385 kg/m3 and 103.384 kg/m3 and 103.383 kg/m3
400 K, 12912 kPa | 103.388 kg/m3
400 K, 26381 kPa | 195.763 kg/m3 and 195.766 kg/m3
400 K, 26382 kPa | 195.77 kg/m3
400 K, 26383 kPa | 195.774 kg/m3
419.99 K, 6278.6 kPa | 49.2274 kg/m3 [middle of 5 runs]
419.99 K, 13587 kPa | 103.001 kg/m3 and 103.002 kg/m3
420 K, 13587 kPa | 103 kg/m3 and 103.001 kg/m3 and 103.002 kg/m3
420 K, 27876 kPa | 195.057 kg/m3 and 195.058 kg/m3 and 195.06 kg/m3
420 K, 27877 kPa | 195.065 kg/m3 and 195.064 kg/m3
420 K, 27878 kPa | 195.07 kg/m3
439.98 K, 499.5 kPa | 3.8187 kg/m3 [middle of 5 runs]
439.98 K, 999 kPa | 7.6237 kg/m3 and 7.6236 kg/m3 and 7.6238 kg/m3
439.98 K, 1998 kPa | 15.1913 kg/m3 and 15.1914 kg/m3
439.98 K, 3995.9 kPa | 30.1496 kg/m3 [middle of 4 runs]
439.98 K, 5993.9 kPa | 44.8532 kg/m3 [middle of 4 runs]
439.99 K, 6571 kPa | 49.0492 kg/m3
439.99 K, 6571.1 kPa | 49.0504 kg/m3 and 49.0497 kg/m3 and 49.05 kg/m3
440 K, 14255 kPa | 102.622 kg/m3 [middle of 6 runs]
440 K, 29348 kPa | 194.34 kg/m3 and 194.342 kg/m3 and 194.344 kg/m3
440 K, 29349 kPa | 194.345 kg/m3 and 194.347 kg/m3 and 194.348 kg/m3
459.99 K, 6861.3 kPa | 48.8758 kg/m3 and 48.8757 kg/m3
460 K, 6861.3 kPa | 48.8757 kg/m3 and 48.8759 kg/m3
460 K, 6861.4 kPa | 48.8764 kg/m3
460 K, 14917 kPa | 102.251 kg/m3 [middle of 5 runs]
460 K, 14918 kPa | 102.253 kg/m3
460 K, 30809 kPa | 193.675 kg/m3
460 K, 30810 kPa | 193.681 kg/m3 and 193.677 kg/m3 and 193.678 kg/m3
460 K, 30811 kPa | 193.683 kg/m3
460 K, 30812 kPa | 193.69 kg/m3
479.99 K, 7148.6 kPa | 48.7024 kg/m3
479.99 K, 7148.7 kPa | 48.7027 kg/m3
480 K, 499.5 kPa | 3.4995 kg/m3 [middle of 5 runs]
480 K, 999 kPa | 6.9854 kg/m3 [middle of 5 runs]
480 K, 1998 kPa | 13.9143 kg/m3 [middle of 5 runs]
480 K, 3996 kPa | 27.6012 kg/m3 and 27.6015 kg/m3 and 27.6009 kg/m3
480 K, 5994 kPa | 41.0449 kg/m3 and 41.045 kg/m3
480 K, 5994.1 kPa | 41.0449 kg/m3 and 41.0443 kg/m3 and 41.045 kg/m3
480 K, 7148.6 kPa | 48.7016 kg/m3 and 48.7015 kg/m3
480 K, 7148.7 kPa | 48.7027 kg/m3
480 K, 15572 kPa | 101.884 kg/m3 [middle of 5 runs]
480 K, 15573 kPa | 101.886 kg/m3
480 K, 32254 kPa | 193.025 kg/m3
480 K, 32255 kPa | 193.027 kg/m3 and 193.029 kg/m3
480 K, 32256 kPa | 193.032 kg/m3 and 193.035 kg/m3
500 K, 7433.7 kPa | 48.5307 kg/m3 and 48.5313 kg/m3
500 K, 7433.8 kPa | 48.531 kg/m3 and 48.5323 kg/m3 and 48.5317 kg/m3
500 K, 7433.9 kPa | 48.5314 kg/m3
500 K, 16220 kPa | 101.517 kg/m3 and 101.518 kg/m3 and 101.519 kg/m3
500 K, 16221 kPa | 101.519 kg/m3 and 101.521 kg/m3
500 K, 33681 kPa | 192.377 kg/m3
500 K, 33682 kPa | 192.38 kg/m3 and 192.382 kg/m3
500 K, 33683 kPa | 192.384 kg/m3
500 K, 33684 kPa | 192.389 kg/m3
500 K, 33686 kPa | 192.396 kg/m3
